This is an account of results in patent US8394742B2, “Methods, compounds and compositions with genotype selective anticancer activity” (The Translation Genomics Research Institute, priority 2005, dated 2013).

Usually IC50 stands for the concentration that inhibits the measured activity by half. Low readings indicate inhibition by little substance, high ones a need for much substance.

Assay [1] has as its system Panc-1 (DPC4 wildtype). The assay can be described thus: MTS cell proliferation assay, Panc-1 cells. The assay is classed as cell-based. Conditions: Homo sapiens. As to the method: The inhibition of cell proliferation by library compounds was evaluated using the CellTiter 96 Non-Radioactive Cell Proliferation Assay following the protocol recommended by the manufacturer (Promega, Madison Wis.). Briefly, 2000 cells were seeded in each well of 96-well plates in 90 μl growth medium. Cells were allowed to attach overnight followed by addition of 10 μl of serially diluted compounds into the plates. After incubation for 4 days at 37° C. in a humidified incubator, 20 μl of a 20:1 mixture of (3-(4,5-dimethylthiazol-2-yl)-5-(3-carboxymethoxyphenyl)-2-(4-sulfophenyl)-2H-tetrazolium, inner salt (MTS, 2 mg/ml) and an electron coupling reagent, phenazine methosulfate (PMS, 0.92 mg/ml), was added to each well and incubated for 3 hours at 37° C. Absorbance was then measured using the Wallace Victor microplate reader at 490 nm (PerkinElmer, Wellesley, Mass.). Data were expressed as the percentage of cell growth calculated from the absorbance corrected for background absorbance. The surviving fraction of cells was determined by dividing the mean absorbance values of the treated samples by the mean absorbance values of the DMSO control.
After generating the isogenic cell lines for the DPC4 gene, Applicants then carried out a screening process using the cell lines with the aim to identify compounds that selectively kill cells with deficient DPC4 function. […]
Background: Tetrazolium assays rely on reduction of a dye to a coloured formazan, in cell work by metabolically active cells.

Assay [2] concerns DPC4 isogenic cell lines (BxPC-3-vector and BxPC-3-DPC4). The assay can be described thus: Pharmacological synthetic lethal screening in DPC4 isogenic cell lines. Conditions: reexpression isogenic cell lines. It is filed as cell-based, human. An excerpt: To find molecules that selectively kill cells with specific deficiencies, Applicants use cell proliferation assays to screen molecules libraries in a high throughput manner. These molecule libraries can be small organic compounds, siRNA libraries, antisense libraries and antibody/protein libraries. To carry out the screening in an efficient and cost-effective way, Applicants have designed a procedure for the screening of small organic compound libraries which consists of three steps, namely Toxicity Screen, Synthetic Lethal Screen and Selectivity Screen (FIG. 12). […]
In the Selectivity Screening, compounds are tested against cancer cell lines with a specific loss-of-function mutation and normal cells (HPDE6 and FORF-TERT). Depending on their approximate potency assessed in the Synthetic lethal Screening, compounds are tested in a range of concentrations (8 concentrations per agent) in Selectivity Screening. […]
After generating the isogenic cell lines for the DPC4 gene, Applicants then carried out a screening process using the cell lines with the aim to identify compounds that selectively kill cells with deficient DPC4 function. […] In each round, the anti-proliferative activity of compounds was evaluated in different cell lines using the CellTiter 96 Non-Radioactive Cell Proliferation Assay (Promega). […]

For the compound `O=C1c2ccccc2C(=O)c2c1ccc1c(=O)n(-c3ccccc3)[nH]c21` [UA62001, 2-phenyl-1H-Naphth [2,3-g]indazole-3,6,11(2H)-trione], in assay [1], the midpoint of inhibition, the IC50, lay at 26 µM. Further, the “selectivity against DPC4 deficiency” value in assay [2] is “DPC4 genotype selectivity”.
